In US9040713B2, “Methods of managing blood sugar levels and compositions related thereto” (EMORY UNIVERSITY, priority 2010, dated 2015):

Assays:
[1] = target: T1, IR-EGFR (Homo sapiens, UniProt P00533+P06213); assay: His-tagged chimaeric receptor phosphorylation in CHO cells; assay type: cell-based; settings: 5 μM, 30 min
T1 construct: the cDNA encoding extracellular IR was fused to intracellular IGFR or EGFR; expressed in transfected cells; host or cells: CHO
Description: (§1) (A) Chemical structure of 4524-E7. (B) Effect of 4524-E7 and other 1,4-naphthoquinone derivatives on IR phosphorylation in CHO-IR cells. CHO-IR cells were cultured in 96-well plates and treated with 5 μM compounds for 15 min at 37 C. Cells were lysed, and IR phosphorylations were tested by ELISA. The IR phosphorylation activities of the tested compounds were expressed as a percentage of the vehicle. (C) 4524-E7 and 1,4-naphthoquinone derivates activate IR and its downstream signaling in CHO-IR cells. […] The cell lysates were analyzed by immunoblotting with various indicated antibodies. The phosphorylated IR was immunoprecipitated using PY20 and analyzed by immunoblotting with anti-IR13 antibody. […] The phosphorylation of each receptor was determined by Western blot using specific antibodies as indicated. (E) 4524-E7 activates IR through its ICD. Upper panel: Diagram of chimaeric receptors. Lower panel: His-tagged wild-type IR, IGFR-IR, IR-IGFR, and IR-EGFR constructs were transfected into CHO cells followed vehicle or 5 μM 4524-E7 treatment for 30 min. Then the cells were lysated and the transfected receptor fused to His tag were pulled down with Ni+ beads, followed by western blot against anti-p-Tyr and anti-His. The cell lysates were tested with anti-p-Akt and anti-Akt.
(§2) The cDNA encoding wild type IR was introduced into the pcDNA3.1/V5-His-TOPO vector. […]

[2] = target: T2, TrkB (Homo sapiens, UniProt Q16620); assay: TrkB phosphorylation in transfected HEK293 cells (Western blot); assay type: cell-based; settings: 5 μM
T2 construct: expressed in transfected cells; host or cells: HEK293

[3] = tested on: IR-IGFR; assay: His-tagged chimaeric receptor phosphorylation in CHO cells; assay type: cell-based, human; settings: 5 μM, 30 min
Description: as §1, §2

[4] = tested on: IGFR-IR hybrid; assay: as above; assay type: cell-based, human; settings: 5 μM, 30 min
Description: as §1, §2

T1 sequence (P00533 669-1210 limits assumed, one chain of several): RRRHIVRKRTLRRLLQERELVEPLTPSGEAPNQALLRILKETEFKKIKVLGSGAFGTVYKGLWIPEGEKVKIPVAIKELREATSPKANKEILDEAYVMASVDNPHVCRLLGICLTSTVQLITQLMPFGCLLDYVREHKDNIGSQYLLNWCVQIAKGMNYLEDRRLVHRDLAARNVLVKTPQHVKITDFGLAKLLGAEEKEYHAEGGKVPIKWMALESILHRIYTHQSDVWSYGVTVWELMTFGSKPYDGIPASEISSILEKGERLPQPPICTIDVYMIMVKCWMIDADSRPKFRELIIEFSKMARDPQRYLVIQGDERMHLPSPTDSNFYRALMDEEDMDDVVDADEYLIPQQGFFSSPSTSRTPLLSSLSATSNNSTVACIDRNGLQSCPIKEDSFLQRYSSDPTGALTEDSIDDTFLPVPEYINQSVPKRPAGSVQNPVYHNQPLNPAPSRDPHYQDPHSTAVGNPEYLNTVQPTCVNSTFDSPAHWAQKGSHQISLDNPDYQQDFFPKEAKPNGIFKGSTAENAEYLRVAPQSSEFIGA
T2 sequence (Q16620 32-822, species assumed): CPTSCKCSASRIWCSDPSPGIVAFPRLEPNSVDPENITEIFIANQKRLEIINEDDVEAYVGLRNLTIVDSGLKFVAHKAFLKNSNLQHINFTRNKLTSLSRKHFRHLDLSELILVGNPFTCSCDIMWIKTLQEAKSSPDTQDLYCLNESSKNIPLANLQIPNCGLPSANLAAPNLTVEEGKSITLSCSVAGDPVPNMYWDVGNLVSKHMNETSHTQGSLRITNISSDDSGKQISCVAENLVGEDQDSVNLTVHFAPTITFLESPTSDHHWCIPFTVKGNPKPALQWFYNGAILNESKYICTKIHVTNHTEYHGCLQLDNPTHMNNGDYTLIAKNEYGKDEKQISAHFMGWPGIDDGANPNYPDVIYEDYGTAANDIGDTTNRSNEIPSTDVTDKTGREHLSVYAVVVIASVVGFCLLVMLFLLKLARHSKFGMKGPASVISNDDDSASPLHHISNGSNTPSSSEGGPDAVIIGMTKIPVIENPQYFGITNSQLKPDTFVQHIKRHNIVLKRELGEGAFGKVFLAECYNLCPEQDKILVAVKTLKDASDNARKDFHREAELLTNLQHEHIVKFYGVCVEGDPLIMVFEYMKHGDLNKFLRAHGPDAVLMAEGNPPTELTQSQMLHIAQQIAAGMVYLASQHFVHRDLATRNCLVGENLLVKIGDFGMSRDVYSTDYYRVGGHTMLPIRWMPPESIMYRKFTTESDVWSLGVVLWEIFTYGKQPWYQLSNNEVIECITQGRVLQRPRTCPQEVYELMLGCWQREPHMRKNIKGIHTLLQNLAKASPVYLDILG

tyrosine phosphorylation of chimaeric receptor [1]: not phosphorylated
TrkB activation [2]: not any other RTKs
SMILES: O=C1c2ccccc2C(=O)C2SC(Nc3ccc(Cl)cc3)=NC12 (stereo not shown) [4524-E7, 2-((4-chlorophenyl)amino)naphtho[2,3-d]thiazole-4,9(3aH,9aH)-dione]
tyrosine phosphorylation of chimaeric receptor [3]: not phosphorylated
tyrosine phosphorylation of chimaeric receptor [4]: selective tyrosine phosphorylation
